Measurements as given in patent publication US20230210853A1 (Halia Therapeutics, Inc., priority 2020, published 2023).

These compounds were tested against T1, full-length recombinant human NEK7 (Homo sapiens, UniProt Q8TDX7) (assay: NEK7 enzymatic assay ([33P]-ATP, casein substrate)). Conditions: Table 2e; recombinant human NEK7, casein substrate.
T1 construct: full-length recombinant human NEK7; GST (N); purchased SignalChem N09-10G; host or cells: Sf9 insect cells (baculovirus)
Format: biochemical
How it was run: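 Serially diluted compounds (10 μM down to 0.5 nM, 3-fold) were preincubated 20 min at room temperature with N-terminal GST-NEK7 from Sf9 cells and casein in pH 7.5 Hepes/MgCl2/EGTA/Brij35/DTT buffer containing 1% DMSO. [33P]-ATP then started a 2 h room-temperature reaction, stopped by spotting onto P81 paper. IC50 came from percent activity remaining versus vehicle.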

T1 sequence (Q8TDX7 whole entry): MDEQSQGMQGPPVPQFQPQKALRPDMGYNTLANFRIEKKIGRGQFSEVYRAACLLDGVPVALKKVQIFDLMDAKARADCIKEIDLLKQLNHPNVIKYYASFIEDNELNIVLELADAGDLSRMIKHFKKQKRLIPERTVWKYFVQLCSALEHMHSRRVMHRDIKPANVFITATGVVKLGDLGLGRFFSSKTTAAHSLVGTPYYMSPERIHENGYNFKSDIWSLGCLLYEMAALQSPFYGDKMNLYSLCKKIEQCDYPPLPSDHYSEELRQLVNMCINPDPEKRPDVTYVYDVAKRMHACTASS

SMILES | IC50 [nM]
O=C(Nc1ccc(CN2CCOCC2)c(F)c1)Nc1ccc(Oc2ccnc3[nH]cc(Cl)c23)cc1F [Ie-2, 1-(4-((3-chloro-1H-pyrrolo[2,3-b]pyridin-4-yl)oxy)-2-fluorophenyl)-3-(3-fluoro-4-(morpholinomethyl)phenyl)urea] | > 1500
Cc1cn(-c2cc(NC(=O)Nc3ccc(Oc4ccnc5[nH]cc(Cl)c45)cc3F)cc(C(F)(F)F)c2)cn1 [Ie-3, 1-(4-((3-Chloro-1H-pyrrolo[2,3-b]pyridin-4-yl)oxy)-2-fluorophenyl)-3-(3-(4-methyl-1H-1-imidazol-1-yl)-5-(TRIFLUOROMETHYL)phenyl)urea] | 501 to 1500
O=C(Nc1ccc(CN2CCOCC2)c(C(F)(F)F)c1)Nc1ccc(Oc2ccnc3[nH]cc(Cl)c23)cc1F [Ie-4, 1-(4-((3-Chloro-1H-pyrrolo[2,3-b]pyridin-4-yl)oxy)-2-fluorophenyl)-3-(4-(morpholinomethyl)-3-(trifluoromethyl)phenyl)UR EA] | > 1500
CN1CCN(Cc2ccc(NC(=O)Nc3ccc(Oc4ccnc5[nH]cc(Cl)c45)cc3F)cc2F)CC1 [Ie-5, 1-(4-((3-chloro-1H-pyrrolo[2,3-b]pyridin-4-yl)oxy)-2-fluorophenyl)-3-(3-fluoro-4-((4-methylpiperazin-1-yl)methyl)phenyl)urea] | > 1500
CN1CCN(c2cc(NC(=O)Nc3ccc(Oc4ccnc5[nH]cc(Cl)c45)cc3F)cc(C(F)(F)F)c2)CC1 [Ie-6, 1-(4-((3-chloro-1H-pyrrolo[2,3-b]pyridin-4-yl)oxy)-2-fluorophenyl)-3-(3-(4-methylpiperazin-1-yl)-5-(trifluoromethyl)phenyl)urea] | > 1500
CN(C)Cc1ccc(NC(=O)Nc2ccc(Oc3ccnc4[nH]cc(Cl)c34)cc2F)cc1C(F)(F)F [Ie-7, 1-(4-((3-chloro-1H-pyrrolo[2,3-b]pyridin-4-yl)oxy)-2-fluorophenyl)-3-(4-((dimethylamino)methyl)-3-(trifluoromethyl)phenyl)urea] | > 1500
CN(C)C1CN(Cc2ccc(NC(=O)Nc3ccc(Oc4ccnc5[nH]cc(Cl)c45)cc3F)cc2C(F)(F)F)C1 [Ie-8, 1-(4-((3-chloro-1H-pyrrolo[2,3-b]pyridin-4-yl)oxy)-2-fluorophenyl)-3-(4-((3-(dimethylamino)azetidin-1-yl)methyl)-3-(trifluoromethyl)phenyl)urea] | > 1500
CC(C)N1CCN(Cc2ccc(NC(=O)Nc3ccc(Oc4ccnc5[nH]cc(Cl)c45)cc3F)cc2C(F)(F)F)CC1 [Ie-10, 1-(4-((3-chloro-1H-pyrrolo[2,3-b]pyridin-4-yl)oxy)-2-fluorophenyl)-3-(4-((4-isopropylpiperazin-1-yl)methyl)-3-(trifluoromethyl)phenyl)urea] | 301 to 500
O=C(Nc1ccc(CN2CCN(C3CC3)CC2)c(C(F)(F)F)c1)Nc1ccc(Oc2ccnc3[nH]cc(Cl)c23)cc1F [Ie-11, 1-(4-((3-chloro-1H-pyrrolo[2,3-b]pyridin-4-yl)oxy)-2-fluorophenyl)-3-(4-((4-cyclopropylpiperazin-1-yl)methyl)-3-(trifluoromethyl)phenyl)urea] | > 1500
CN1CCN(Cc2ccc(NC(=O)Nc3ccc(Oc4ccnc5[nH]cc(Cl)c45)cc3F)cc2Cl)CC1 [Ie-12, 1-(4-((3-chloro-1H-pyrrolo[2,3-b]pyridin-4-yl)oxy)-2-fluorophenyl)-3-(3-chloro-4-((4-methylpiperazin-1-yl)methyl)phenyl)urea] | > 1500
CC(c1ccc(NC(=O)Nc2ccc(Oc3ccnc4[nH]cc(Cl)c34)cc2F)cc1C(F)(F)F)N1CCN(C)CC1 (stereo not shown) [Ie-13, 1-(4-((3-chloro-1H-pyrrolo[2,3-b]pyridin-4-yl)oxy)-2-fluorophenyl)-3-(4-(1-(4-methylpiperazin-1-yl)ethyl)-3-(trifluoromethyl)phenyl)urea] | 501 to 1500
CN1CCN(c2ccc(NC(=O)Nc3ccc(Oc4ccnc5[nH]cc(Cl)c45)cc3F)cc2C(F)(F)F)CC1 [Ie-14, 1-(4-((3-chloro-1H-pyrrolo[2,3-b]pyridin-4-yl)oxy)-2-fluorophenyl)-3-(4-(4-methylpiperazin-1-yl)-3-(trifluoromethyl)phenyl)urea] | > 1500
CN1CCN(C(=O)c2ccc(NC(=O)Nc3ccc(Oc4ccnc5[nH]cc(Cl)c45)cc3F)cc2C(F)(F)F)CC1 [Ie-15, 1-(4-((3-chloro-1H-pyrrolo[2,3-b]pyridin-4-yl)oxy)-2-fluorophenyl)-3-(4-(4-methylpiperazine-1-carbonyl)-3-(trifluoromethyl)phenyl)urea] | > 1500
CN1CCCN(Cc2ccc(NC(=O)Nc3ccc(Oc4ccnc5[nH]cc(Cl)c45)cc3F)cc2C(F)(F)F)CC1 [Ie-17, 1-(4-((3-chloro-1H-pyrrolo[2,3-b]pyridin-4-yl)oxy)-2-fluorophenyl)-3-(4-((4-methyl-1,4-diazepan-1-yl)methyl)-3-(trifluoromethyl)phenyl)urea] | > 1500
CN1C[C@@H]2CN(Cc3ccc(NC(=O)Nc4ccc(Oc5ccnc6[nH]cc(Cl)c56)cc4F)cc3C(F)(F)F)C[C@@H]2C1 [Ie-18, 1-(4-((3-chloro-1H-pyrrolo[2,3-b]pyridin-4-yl)oxy)-2-fluorophenyl)-3-(4-(((3aR,6aS)-5-methylhexahydropyrrolo[3,4-c]pyrrol-2(1H)-yl)methyl)-3-(trifluoromethyl)phenyl)urea] | > 1500
CN1CCC(Cc2ccc(NC(=O)Nc3ccc(Oc4ccnc5[nH]cc(Cl)c45)cc3F)cc2C(F)(F)F)CC1 [Ie-19, 1-(4-((3-chloro-1H-pyrrolo[2,3-H]pyridin-4-yl)oxy)-2-fluorophenyl)-3-(4-((1-methylpiperidin-4-yl)methyl)-3-(trifluoromethyl)phenyl)urea] | 501 to 1500
CN(C)C1CCN(Cc2ccc(NC(=O)Nc3ccc(Oc4ccnc5[nH]cc(Cl)c45)cc3F)cc2C(F)(F)F)C1 (stereo not shown) [Ie-21, 1-(4-((3-chloro-1H-pyrrolo[2,3-b]pyridin-4-yl)oxy)-2-fluorophenyl)-3-(4-((3-(dimethylamino)pyrrolidin-1-yl)methyl)-3-(trifluoromethyl)phenyl)urea] | > 1500
CN1CCN(Cc2ccc(NC(=O)Nc3ccc(Oc4ccnc5[nH]cc(Cl)c45)cc3F)cc2C(F)F)CC1 [Ie-22, 1-(4-((3-chloro-1H-pyrrolo[2,3-b]pyridin-4-yl)oxy)-2-fluorophenyl)-3-(3-(difluoromethyl)-4-((4-methylpiperazin-1-yl)methyl)phenyl)urea] | 501 to 1500
CCN1CCN(Cc2ccc(NC(=O)Nc3ccc(Oc4ccnc5[nH]cc(Cl)c45)cc3F)cc2C(F)F)CC1 [Ie-23, 1-(4-((3-chloro-1-pyrrolo[2,3-b]pyridin-4-yl)oxy)-2-fluorophenyl)-3-(3-(difluoromethyl)-4-((4-ethylpiperazin-1-yl)methyl)phenyl)urea] | 501 to 1500
Cc1cn(-c2ccc(NC(=O)Nc3ccc(Oc4ccnc5[nH]cc(Cl)c45)cc3F)cc2C(F)(F)F)cn1 [Ie-24, 1-(4-((3-chloro-1H-pyrrolo[2,3-b]pyridin-4-yl)oxy)-2-fluorophenyl)-3-(4-(4-methyl-1H-imidazol-1-yl)-3-(trifluoromethyl)phenyl)urea] | 301 to 500
CN1CCN(Cc2ccc(NC(=O)Nc3ccc(Oc4ccnc5[nH]c(Cl)c(Cl)c45)cc3F)cc2C(F)(F)F)CC1 [Ie-25, 1-(4-((2,3-dichloro-1H-pyrrolo[2,3-b]pyridin-4-yl)oxy)-2-fluorophenyl)-3-(4-((4-methylpiperazin-1-yl)methyl)-3-(trifluoromethyl)phenyl)urea] | 301 to 500
Cc1cc(Oc2ccnc3[nH]cc(Cl)c23)ccc1NC(=O)Nc1ccc(CN2CCN(C)CC2)c(C(F)(F)F)c1 [Ie-29] | > 1500
Cc1cc(Oc2ccnc3[nH]c(Cl)c(Cl)c23)ccc1NC(=O)Nc1ccc(CN2CCN(C)CC2)c(C(F)(F)F)c1 [Ie-30, 1-(4-((2,3-dichloro-1H-pyrrolo[2,3-b]pyridin-4-yl)oxy)-2-methylphenyl)-3-(4-((4-methylpiperazin-1-yl)methyl)-3-(trifluoromethyl)phenyl)urea] | > 1500
O=C(Nc1ccc(CN2CCC2)c(C(F)(F)F)c1)Nc1ccc(Oc2ccnc3[nH]cc(Cl)c23)cc1F [Ie-31, 1-(4-(azetidin-1-ylmethyl)-3-(trifluoromethyl)phenyl)-3-(4-((3-chloro-1H-pyrrolo[2,3-b]pyridin-4-yl)oxy)-2-fluorophenyl)urea] | > 1500
O=C(Nc1ccc(CN2CC(F)(F)C2)c(C(F)(F)F)c1)Nc1ccc(Oc2ccnc3[nH]cc(Cl)c23)cc1F [Ie-32, 1-(4-((3-chloro-1H-pyrrolo[2,3-b]pyridin-4-yl)oxy)-2-fluorophenyl)-3-(4-((3,3-difluoroazetidin-1-yl)methyl)-3-(trifluoromethyl)phenyl)urea] | > 1500
CN1C[C@H]2CC[C@@H](C1)N2Cc1ccc(NC(=O)Nc2ccc(Oc3ccnc4[nH]cc(Cl)c34)cc2F)cc1C(F)(F)F [Ie-33, 1-(4-((3-chloro-1H-pyrrolo[2,3-b]pyridin-4-yl)oxy)-2-fluorophenyl)-3-(4-(((1R,5S)-3-methyl-3,8-diazabicyclo[3.2.1]octan-8-yl)methyl)-3-(trifluoromethyl)phenyl)urea] | > 1500
CN1CC2CCC1CN2Cc1ccc(NC(=O)Nc2ccc(Oc3ccnc4[nH]cc(Cl)c34)cc2F)cc1C(F)(F)F (stereo not shown) [Ie-35, 1-(4-((3-chloro-1H-pyrrolo[2,3-b]pyridin-4-yl)oxy)-2-fluorophenyl)-3-(4-((5-methyl-2,5-diazabicyclo[2.2.2]octan-2-yl)methyl)-3-(trifluoromethyl)phenyl)urea] | > 1500

Same assay, conditions: Table 2d; recombinant human NEK7, casein substrate

SMILES | IC50 [nM]
CN(C)C1CCN(Cc2ccc(NC(=O)Nc3ccc(-c4cn(C5CC5)c5ncnc(N)c45)cc3F)cc2C(F)(F)F)CC1 [Id-68] | < 150
CC1CN(C)CCN1Cc1ccc(NC(=O)Nc2ccc(-c3cn(C4CC4)c4ncnc(N)c34)cc2F)cc1C(F)(F)F (stereo not shown) [Id-69] | 151 to 300
CN1CCN(Cc2ccc(NC(=O)Nc3ccc(-c4cn(CCO)c5ncnc(N)c45)cc3F)cc2C(F)(F)F)CC1 [Id-70] | < 150
Nc1ncnc2c1c(-c1ccc(NC(=O)Nc3ccc(CN4CCN(CCO)CC4)c(C(F)F)c3)c(F)c1)cn2C1CC1 [Id-71] | < 150
